Results: ChEMBL document CHEMBL1201862, “PubChem BioAssay data set” (2004)
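Values below derive from 48-hour exposures of cells grown in 96-well plates, with endpoints linearly interpolated between the two concentrations bracketing the appropriate inhibition level. GI50: concentration for 50% inhibition of growth.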 Calls of active or inactive are those of the source. Rule as the data show it: active = GI50 up to about 1.1 µM and inactive = higher.

Experiments:
Assay in all cases: NCI tumour cell line growth inhibition, 48 h
[1] = tested on: 786-0
[2] = tested on: A498
[3] = tested on: A549
[4] = tested on: ACHN
[5] = tested on: BT-549
[6] = tested on: CAKI-1
[7] = tested on: CCRF-CEM
[8] = tested on: COLO 205
[9] = tested on: DU-145
[10] = tested on: EKVX
[11] = tested on: HCC 2998
[12] = tested on: HCT-116
[13] = tested on: HCT-15
[14] = tested on: HL-60
[15] = tested on: HOP-62
[16] = tested on: HOP-92
[17] = tested on: HT-29
[18] = tested on: IGROV-1
[19] = tested on: K562
[20] = tested on: KM12
[21] = tested on: LOX IMVI
[22] = tested on: M14
[23] = tested on: MCF7
[24] = tested on: MDA-MB-231
[25] = tested on: MDA-MB-435
[26] = tested on: MDA-N
[27] = tested on: MOLT-4
[28] = tested on: Malme-3M
[29] = tested on: NCI-H226
[30] = tested on: NCI-H23
[31] = tested on: NCI-H460
[32] = tested on: NCI-H522
[33] = tested on: NCI/ADR-RES
[34] = tested on: OVCAR-3
[35] = tested on: OVCAR-4
[36] = tested on: OVCAR-5
[37] = tested on: OVCAR-8
[38] = tested on: PC-3
[39] = tested on: RPMI-8226
[40] = tested on: RXF 393
[41] = tested on: SF-268
[42] = tested on: SF-295
[43] = tested on: SF-539
[44] = tested on: SK-MEL-28
[45] = tested on: SK-MEL-2
[46] = tested on: SK-MEL-5
[47] = tested on: SK-OV-3
[48] = tested on: SN12C
[49] = tested on: SNB-19
[50] = tested on: SNB-75
[51] = tested on: SW-620
[52] = tested on: T47D
[53] = tested on: TK-10
[54] = tested on: U-251
[55] = tested on: UACC-257
[56] = tested on: UACC-62
[57] = tested on: UO-31
[58] = tested on: Hs-578T
[59] = tested on: SR

CN(C)c1ccc(/C=C/C=c2/c3ccccc3n3c2cc(-c2ccccc2)[n+]3C)cc1
GI50 [1]: 0.252 µM (active)
GI50 [2]: 0.387 µM (active)
GI50 [3]: 0.26 µM (active)
GI50 [4]: 0.218 µM (active)
GI50 [5]: 0.233 µM (active)
GI50 [6]: 0.251 µM (active)
GI50 [7]: 0.187 µM (active)
GI50 [8]: 0.0698 µM (active)
GI50 [9]: 0.0931 µM (active)
GI50 [10]: 0.254 µM (active)
GI50 [11]: 0.303 µM (active)
GI50 [12]: 0.0386 µM (active)
GI50 [13]: 0.488 µM
GI50 [14]: 0.075 µM (active)
GI50 [15]: 0.303 µM (active)
GI50 [16]: 0.318 µM (active)
GI50 [17]: 0.275 µM (active)
GI50 [18]: 0.238 µM (active)
GI50 [19]: 0.0512 µM (active)
GI50 [20]: 0.0598 µM (active)
GI50 [21]: 0.105 µM (active)
GI50 [22]: 0.215 µM (active)
GI50 [23]: 0.0935 µM (active)
GI50 [24]: 0.466 µM (active)
GI50 [25]: 0.151 µM (active)
GI50 [26]: 0.234 µM (active)
GI50 [27]: 0.0881 µM (active)
GI50 [28]: 0.492 µM (active)
GI50 [29]: 0.454 µM (active)
GI50 [30]: 0.188 µM (active)
GI50 [31]: 0.307 µM (active)
GI50 [32]: 0.0548 µM (active)
GI50 [33]: 3.43 µM (inactive)
GI50 [34]: 0.0746 µM (active)
GI50 [35]: 0.414 µM (active)
GI50 [36]: 0.478 µM (active)
GI50 [37]: 0.102 µM (active)
GI50 [38]: 0.133 µM (active)
GI50 [39]: 0.149 µM (active)
GI50 [40]: 0.063 µM (active)
GI50 [41]: 0.497 µM (active)
GI50 [42]: 0.288 µM (active)
GI50 [43]: 0.171 µM (active)
GI50 [44]: 0.459 µM (active)
GI50 [45]: 4.54 µM (inactive)
GI50 [46]: 0.169 µM (active)
GI50 [47]: 0.348 µM (active)
GI50 [48]: 0.243 µM (active)
GI50 [49]: 0.127 µM (active)
GI50 [50]: 0.336 µM (active)
GI50 [51]: 0.0731 µM (active)
GI50 [52]: 0.0735 µM (active)
GI50 [53]: 0.564 µM (active)
GI50 [54]: 0.0387 µM (active)
GI50 [55]: 0.182 µM (active)
GI50 [56]: 0.217 µM (active)
GI50 [57]: 0.333 µM (active)

COc1ccc2[nH]c3c(c2c1)CCn1c-3nc2ccccc2c1=O
GI50 [1]: > 25 µM (inactive)
GI50 [3]: > 25 µM (inactive)
GI50 [4]: > 25 µM (inactive)
GI50 [7]: > 25 µM (inactive)
GI50 [8]: > 25 µM (inactive)
GI50 [10]: > 25 µM (inactive)
GI50 [11]: > 25 µM (inactive)
GI50 [12]: > 25 µM (inactive)
GI50 [13]: > 25 µM
GI50 [14]: > 25 µM (inactive)
GI50 [15]: > 25 µM (inactive)
GI50 [58]: > 25 µM (inactive)
GI50 [18]: > 25 µM (inactive)
GI50 [19]: > 25 µM (inactive)
GI50 [20]: > 25 µM (inactive)
GI50 [22]: > 25 µM (inactive)
GI50 [23]: > 25 µM (inactive)
GI50 [24]: > 25 µM (inactive)
GI50 [25]: > 25 µM (inactive)
GI50 [26]: > 25 µM (inactive)
GI50 [27]: > 25 µM (inactive)
GI50 [31]: > 25 µM (inactive)
GI50 [32]: > 25 µM (inactive)
GI50 [33]: > 25 µM (inactive)
GI50 [35]: > 25 µM (inactive)
GI50 [36]: > 25 µM (inactive)
GI50 [37]: > 25 µM (inactive)
GI50 [38]: > 25 µM (inactive)
GI50 [39]: > 25 µM (inactive)
GI50 [41]: > 25 µM (inactive)
GI50 [42]: > 25 µM (inactive)
GI50 [43]: > 25 µM (inactive)
GI50 [44]: > 25 µM (inactive)
GI50 [46]: > 25 µM (inactive)
GI50 [47]: > 25 µM (inactive)
GI50 [48]: > 25 µM (inactive)
GI50 [49]: > 25 µM (inactive)
GI50 [50]: > 25 µM (inactive)
GI50 [59]: > 25 µM (inactive)
GI50 [51]: > 25 µM (inactive)
GI50 [52]: > 25 µM (inactive)
GI50 [53]: > 25 µM (inactive)
GI50 [54]: > 25 µM (inactive)
GI50 [55]: > 25 µM (inactive)
GI50 [57]: > 25 µM (inactive)

CC1C[C@]2(C)C(=O)Nc3ccccc3[C@@H]2Nc2ccccc21 (some centres not stated)
GI50 [1]: 22 µM (inactive)
GI50 [2]: 20.5 µM (inactive)
GI50 [3]: 25.1 µM (inactive)
GI50 [4]: 27.1 µM (inactive)
GI50 [6]: 20.3 µM (inactive)
GI50 [7]: 30.5 µM (inactive)
GI50 [8]: 18.1 µM (inactive)
GI50 [9]: 27.7 µM (inactive)
GI50 [10]: 19.9 µM (inactive)
GI50 [11]: 33.7 µM (inactive)
GI50 [12]: 16.1 µM (inactive)
GI50 [13]: 34.7 µM
GI50 [14]: 36.4 µM (inactive)
GI50 [15]: 23.7 µM (inactive)
GI50 [16]: 1.95 µM (inactive)
GI50 [17]: 14.7 µM (inactive)
GI50 [58]: 20 µM (inactive)
GI50 [18]: 24.4 µM (inactive)
GI50 [19]: 32.9 µM (inactive)
GI50 [20]: 17.9 µM (inactive)
GI50 [21]: 16.3 µM (inactive)
GI50 [22]: 26.1 µM (inactive)
GI50 [23]: 21 µM (inactive)
GI50 [24]: 16.3 µM (inactive)
GI50 [25]: 24 µM (inactive)
GI50 [26]: 28.8 µM (inactive)
GI50 [27]: 17.4 µM (inactive)
GI50 [28]: 23.3 µM (inactive)
GI50 [29]: 26.1 µM (inactive)
GI50 [30]: 19.5 µM (inactive)
GI50 [31]: 28.1 µM (inactive)
GI50 [33]: 19.8 µM (inactive)
GI50 [34]: 17.8 µM (inactive)
GI50 [35]: 44.3 µM (inactive)
GI50 [36]: 35.6 µM (inactive)
GI50 [37]: 14.8 µM (inactive)
GI50 [38]: 17.6 µM (inactive)
GI50 [39]: 23.5 µM (inactive)
GI50 [40]: 24.8 µM (inactive)
GI50 [41]: 23.7 µM (inactive)
GI50 [42]: 31.6 µM (inactive)
GI50 [43]: 23.4 µM (inactive)
GI50 [44]: 28.6 µM (inactive)
GI50 [45]: 20.1 µM (inactive)
GI50 [46]: 16.5 µM (inactive)
GI50 [48]: 19.5 µM (inactive)
GI50 [49]: 21.8 µM (inactive)
GI50 [50]: 46.3 µM (inactive)
GI50 [59]: 16.2 µM (inactive)
GI50 [51]: 34.6 µM (inactive)
GI50 [52]: 42.5 µM (inactive)
GI50 [53]: 21.2 µM (inactive)
GI50 [55]: 15.6 µM (inactive)
GI50 [56]: 15.1 µM (inactive)
GI50 [57]: 50 µM (inactive)
